Measured values published in US7402575B2, “Methods of treating inflammation” (priority 2003, dated 2008).

System: E. coli sepsis in dogs
Experiment: Late Treatment Study: TAC given after 3.5 h of sepsis, hemodynamics
Format: in vivo, dog
Conditions: for Arterial pH / HR / Hct / Lactate / Pwp / SVR: mean±SE, n=5
Experimental: In all of the studies outlined, the animals were randomized into treatment and nontreatment placebo groups (see below). The E. coli model used in these studies was identical to that previously described (6). Sepsis was induced by the intravenous infusion of 10^10 colony forming units of live E. coli (designation 011:B4). The bacteria were suspended in normal saline solution and were given over 0.5 hour. A constant infusion of approximately 5×10^9 colony forming units/hour of E. coli was then maintained for the remainder of the experiment.
The animals (16-24 kg) were initially anesthetized with thiopental sodium (20 mg/kg, intravenously) and constantly infused with sufentanil citrate (1 ug/min) and midazolam (5 ug/kg/min) (33). Drug rates were adjusted as required to abolish the palpebral reflex. The animals were placed in the supine position; the trachea was intubated with an endotracheal tube; and the lungs were mechanically ventilated at a tidal volume of 20 ml/kg. The ventilator rate was initially set to maintain blood pH at approximately 7.35 and was increased as necessary to reverse the metabolic acidosis that developed over the course of the study. Approximately 100% oxygen was inspired, so that hypoxemia would not affect the results of the study.
Under sterile conditions, the right jugular vein was percutaneously cannulated with an introducer (Arrow International, Reading, Pa.). A thermister tipped catheter was advanced from the jugular vein into the pulmonary artery to measure mean pulmonary arterial pressure (Ppa), mean pulmonary capillary wedge pressure (Pwp), mean right atrial pressure (Pra), thermodilution cardiac output (CO, Columbus Instruments, OH), and to obtain mixed venous oxygen blood samples. Another introducer was placed into the left jugular vein for administration of intravenous saline solution and the treatment or placebo drug (see below). A polyethylene catheter was also percutaneously placed into the femoral artery to measure mean blood pressure (MAP), and to obtain samples of blood for blood gas analysis, blood hematocrit (Hct), lactate concentrations, and blood cultures in some cases. Lactate was measured by an automated lactate dehydrogenase based assay (34) and was performed only in ETS and LTS because of equipment difficulties in the Pretreatment Study.
All catheters were connected to transducers (Cobe Laboratories), were referenced relative to the left atrium and were connected to a chart recorder (Astro-Med, W Warwick, R.I.). Heart rate (HR) was measured from the recorder tracing. Stroke-volume (SV) was calculated as CO/HR. Systemic vascular resistance (SVR) was calculated from [(MAP-Pra)/CO]×80. At each measurement interval (see below), a full set of measurements included MAP, CO, Ppa, Pra, Pwp, Hct, HR, SV, and arterial and mixed venous blood samples.
In the analysis, stroke work (SW) was the primary index of cardiac performance and the primary hemodynamic endpoint chosen in the in vivo studies (35,18) (see Discussion). At constant preload, SW reflects both the decreases in afterload and the changes in contractile function that accompany sepsis. SW was determined at approximately the same Pwp at each measurement interval. The baseline Pwp usually averaged ≈8-10 mmHg, and normal saline solution was given as necessary to maintain Pwp constant over the experimental period. SW was calculated from SV (MAP-Pwp).
Late Treatment Study. In LTS, the objective was to see if TAC would reverse myocardial depression once it had already been produced. TAC was administered after 3.5 hours after the initiation of bacteria and was given over a 0.5 hour in 200 ml D5W. Because it was also noted in the in vitro trabecular preparation that once lysozyme was already placed into the bath, a higher concentration of TAC was required to inhibit the effect of lysozyme, the initial dose was increased to 250 mg in LTC. […]

[1] = Late Treatment Study, 2 h posttreatment (6 h post-sepsis)
[2] = Late Treatment Study, 3.5 h post sepsis, before TAC
[3] = Late Treatment Study, immediately after TAC infusion

CC(=O)N[C@H]1[C@H](O[C@H]2[C@H](O)[C@@H](NC(C)=O)C(O)O[C@@H]2CO)O[C@H](CO)[C@@H](O[C@@H]2O[C@H](CO)[C@@H](O)[C@H](O)[C@H]2NC(C)=O)[C@@H]1O (stereo partly shown) [TAC, N,N′,N″ triacetylglucosamine]
SW once myocardial depression was observed (Late Treatment Study): little effect of treatment on SW | Hemodynamics (Late Treatment Study (FIG. 11)): no effect | Arterial pH [1]: 7.20 ± .04 | HR [1]: 90 ± 9 beats/min | Hct [1]: 29 ± 6% | Lactate [1]: 1.3 ± .4 mM | Pwp [1]: 10 ± 1.6 mmHg | SVR [1]: 1280 ± 182 dynes s cm^−5 | Arterial pH [2]: 7.24 ± .05 | HR [2]: 113 ± 9 beats/min | Hct [2]: 26 ± 5% | Pwp [2]: 9.8 ± 1 mmHg | SVR [2]: 1200 ± 262 dynes s cm^−5 | Arterial pH (Late Treatment Study, baseline): 7.34 ± .015 | HR (Late Treatment Study, baseline): 60 ± 4 beats/min | Hct (Late Treatment Study, baseline): 34 ± 2% | Lactate (Late Treatment Study, baseline): .9 ± .2 mM | Pwp (Late Treatment Study, baseline): 9.4 ± 1 mmHg | SVR (Late Treatment Study, baseline): 2437 ± 343 dynes s cm^−5 | Arterial pH [3]: 7.20 ± .04 | HR [3]: 96 ± 8 beats/min | Hct [3]: 27 ± 5% | Lactate [3]: 1.3 ± .2 mM | Pwp [3]: 10.5 ± 1.4 mmHg | SVR [3]: 1268 ± 196 dynes s cm^−5
